Measured values taken from PubChem BioAssay AID2060328 (Molecular Pharmacology Branch, DTP, NCI, 2025).
Where “and” joins values, the source holds several entries; their conditions need not be identical. Identical values can stand only once.

Test system: MDA-MB-231 multicell spheroids, viability (%T/C)
Experiment: Anticancer human tumor MDA-MB-231 cell line growth inhibition [IpAb];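 further: viability read after seven days of drug exposure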;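 on viability, T/C: 100% = DMSO vehicle control viability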
Settings: for viability, T/C: stronger effect = lower value; active means viability on the fitted dose curve at most 10% of control; inactive means the rest
Procedure, shortened: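 Spheroids of 60% malignant cells, 25% HUVEC and 15% MSC were exposed to targeted agents combined with ipatasertib or abemaciclib. Doses started at or near clinical Cmax (10 microM when unknown) and fell in half-log steps.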

[1] = curve of first compound, second compound 0.01 µM
[2] = curve of first compound, second compound 0.0316 µM
[3] = curve of first compound, second compound 0.1 µM
[4] = curve of first compound, second compound 0.316 µM
[5] = curve of first compound, second compound 1 µM
[6] = second compound 0.1 µM, first compound 0.00949 µM
[7] = second compound 0.1 µM, first compound 0.03 µM
[8] = second compound 0.1 µM, first compound 0.0949 µM
[9] = second compound 0.1 µM, first compound 0.3 µM
[10] = second compound 0.1 µM, first compound 0.949 µM
[11] = second compound 0.1 µM, first compound 3 µM
[12] = second compound 0.316 µM, first compound 0.00949 µM
[13] = second compound 0.316 µM, first compound 0.03 µM
[14] = second compound 0.316 µM, first compound 0.0949 µM
[15] = second compound 0.316 µM, first compound 0.3 µM
[16] = second compound 0.316 µM, first compound 0.949 µM
[17] = second compound 0.316 µM, first compound 3 µM
[18] = second compound 1 µM, first compound 0.00949 µM
[19] = second compound 1 µM, first compound 0.03 µM
[20] = second compound 1 µM, first compound 0.0949 µM
[21] = second compound 1 µM, first compound 0.3 µM
[22] = second compound 1 µM, first compound 0.949 µM
[23] = second compound 1 µM, first compound 3 µM
[24] = curve of first compound, second compound 3.16 µM
[25] = curve of first compound, second compound 10 µM
[26] = second compound 0.1 µM, first compound 0.0316 µM
[27] = second compound 0.1 µM, first compound 0.1 µM
[28] = second compound 0.316 µM, first compound 0.0316 µM
[29] = second compound 0.316 µM, first compound 0.1 µM
[30] = second compound 1 µM, first compound 0.0316 µM
[31] = second compound 1 µM, first compound 0.1 µM

CC(C)(C)c1cnc(CSc2cnc(NC(=O)C3CCNCC3)s2)o1 + CCN1CCN(Cc2ccc(Nc3ncc(F)c(-c4cc(F)c5nc(C)n(C(C)C)c5c4)n3)nc2)CC1
36.3 nM: IC50 [5]
148 nM: IC50 [2]
active: viability, T/C (second compound 0.01 µM, first compound 0.3 µM) 1.81% | viability, T/C (second compound 0.01 µM, first compound 0.949 µM) 0.77% | viability, T/C (second compound 0.01 µM, first compound 3 µM) 0.81% | viability, T/C (second compound 0.0316 µM, first compound 0.3 µM) 1.55% | viability, T/C (second compound 0.0316 µM, first compound 0.949 µM) 0.68% | viability, T/C (second compound 0.0316 µM, first compound 3 µM) 0.85% | viability, T/C [9] 1.37% | viability, T/C [10] 0.89% | viability, T/C [11] 1.1% | viability, T/C [15] 1.36% | viability, T/C [16] 0.96% | viability, T/C [17] 0.95% | viability, T/C [21] 1.87% | viability, T/C [22] 1.16% | viability, T/C [23] 1.42%
120 nM: IC50 [3]
171 nM: IC50 [1]
33.3 nM: IC50 [4]
inactive: viability, T/C (second compound 0.01 µM, first compound 0.00949 µM) 92.2% | viability, T/C (second compound 0.01 µM, first compound 0.03 µM) 102% | viability, T/C (second compound 0.01 µM, first compound 0.0949 µM) 106% | viability, T/C (second compound 0.0316 µM, first compound 0.00949 µM) 76.8% | viability, T/C (second compound 0.0316 µM, first compound 0.03 µM) 82.2% | viability, T/C (second compound 0.0316 µM, first compound 0.0949 µM) 83.9% | viability, T/C [6] 59.1% | viability, T/C [7] 63.1% | viability, T/C [8] 66% | viability, T/C [12] 47.4% | viability, T/C [13] 53.4% | viability, T/C [14] 46.1% | viability, T/C [18] 52.7% | viability, T/C [19] 53.4% | viability, T/C [20] 34.9%

Cn1cnc2c(F)c(Nc3ccc(Br)cc3Cl)c(C(=O)NOCCO)cc21 + CC(C)NCC(C(=O)N1CCN(c2ncnc3c2C(C)CC3O)CC1)c1ccc(Cl)cc1
< 9.49 nM: IC50 [3] | IC50 [4] | IC50 [5] | IC50 [24] | IC50 [25]
active: viability, T/C (second compound 3.16 µM, first compound 3 µM) 7.58% | viability, T/C (second compound 10 µM, first compound 0.949 µM) 8.94% | viability, T/C (second compound 10 µM, first compound 3 µM) 4.82%
inactive: viability, T/C [6] 43.2% | viability, T/C [7] 36.2% | viability, T/C [8] 34.3% | viability, T/C [9] 27.8% | viability, T/C [10] 23.4% | viability, T/C [11] 13% | viability, T/C [12] 38% | viability, T/C [13] 31.8% | viability, T/C [14] 29.5% | viability, T/C [15] 24.1% | viability, T/C [16] 20.4% | viability, T/C [17] 11.6% | viability, T/C [18] 31.2% | viability, T/C [19] 28.2% | viability, T/C [20] 24.8% | viability, T/C [21] 23% | viability, T/C [22] 17.5% | viability, T/C [23] 10.5% | viability, T/C (second compound 3.16 µM, first compound 0.00949 µM) 25% | viability, T/C (second compound 3.16 µM, first compound 0.03 µM) 22.6% | viability, T/C (second compound 3.16 µM, first compound 0.0949 µM) 20.6% | viability, T/C (second compound 3.16 µM, first compound 0.3 µM) 18.4% | viability, T/C (second compound 3.16 µM, first compound 0.949 µM) 14.5% | viability, T/C (second compound 10 µM, first compound 0.00949 µM) 18.9% | viability, T/C (second compound 10 µM, first compound 0.03 µM) 16.9% | viability, T/C (second compound 10 µM, first compound 0.0949 µM) 13.8% | viability, T/C (second compound 10 µM, first compound 0.3 µM) 13.1%

CC1(C)CCC(CN2CCN(c3ccc(C(=O)NS(=O)(=O)c4ccc(NCC5CCOCC5)c([N+](=O)[O-])c4)c(Oc4cnc5[nH]ccc5c4)c3)CC2)=C(c2ccc(Cl)cc2)C1 + CC(C)NCC(C(=O)N1CCN(c2ncnc3c2C(C)CC3O)CC1)c1ccc(Cl)cc1
3680 nM: IC50 [24]
inactive: viability, T/C [26] 99% | viability, T/C [27] 96.8% | viability, T/C (second compound 0.1 µM, first compound 0.316 µM) 103% | viability, T/C (second compound 0.1 µM, first compound 1 µM) 95.9% | viability, T/C (second compound 0.1 µM, first compound 3.16 µM) 96.9% | viability, T/C (second compound 0.1 µM, first compound 10 µM) 12.4% | viability, T/C [28] 86.2% | viability, T/C [29] 88.3% | viability, T/C (second compound 0.316 µM, first compound 0.316 µM) 93.7% | viability, T/C (second compound 0.316 µM, first compound 1 µM) 94.5% | viability, T/C (second compound 0.316 µM, first compound 3.16 µM) 86.1% | viability, T/C [30] 75.9% | viability, T/C [31] 79.4% | viability, T/C (second compound 1 µM, first compound 0.316 µM) 75.4% | viability, T/C (second compound 1 µM, first compound 1 µM) 77.7% | viability, T/C (second compound 1 µM, first compound 3.16 µM) 71.2% | viability, T/C (second compound 1 µM, first compound 10 µM) 10.9% | viability, T/C (second compound 3.16 µM, first compound 0.0316 µM) 60.8% | viability, T/C (second compound 3.16 µM, first compound 0.1 µM) 57.2% | viability, T/C (second compound 3.16 µM, first compound 0.316 µM) 59.4% | viability, T/C (second compound 3.16 µM, first compound 1 µM) 60.1% | viability, T/C (second compound 3.16 µM, first compound 3.16 µM) 56.5% | viability, T/C (second compound 10 µM, first compound 0.0316 µM) 39.8% | viability, T/C (second compound 10 µM, first compound 0.1 µM) 43% | viability, T/C (second compound 10 µM, first compound 0.316 µM) 40.5% | viability, T/C (second compound 10 µM, first compound 1 µM) 39.4% | viability, T/C (second compound 10 µM, first compound 3.16 µM) 36.4%
< 31.6 nM: IC50 [25]
active: viability, T/C (second compound 0.316 µM, first compound 10 µM) 7.75% | viability, T/C (second compound 3.16 µM, first compound 10 µM) 7.09% | viability, T/C (second compound 10 µM, first compound 10 µM) 4.22%
5990 nM: IC50 [3]
4750 nM: IC50 [5]
5380 nM: IC50 [4]

CC(=O)c1c(C)c2cnc(Nc3ccc(N4CCNCC4)cn3)nc2n(C2CCCC2)c1=O
inactive: viability, T/C (compound 0.000949 µM) 103% and 105% | viability, T/C (compound 0.003 µM) 88.5% and 88.2% | viability, T/C (compound 0.00949 µM) 74% and 79.3% | viability, T/C (compound 0.03 µM) 57.7% and 57.8% | viability, T/C (compound 0.0949 µM) 42.3% and 46% | viability, T/C (compound 0.3 µM) 38.7% and 38.9%
56.4 nM and 70.1 nM: IC50 (curve of compound)

CC(C)n1nc(-c2ccc3oc(N)nc3c2)c2c(N)ncnc21 + CCN1CCN(Cc2ccc(Nc3ncc(F)c(-c4cc(F)c5nc(C)n(C(C)C)c5c4)n3)nc2)CC1
7.66 nM: IC50 [1]
inactive: viability, T/C (second compound 0.01 µM, first compound 0.000316 µM) 90.3% | viability, T/C (second compound 0.01 µM, first compound 0.001 µM) 85.6% | viability, T/C (second compound 0.01 µM, first compound 0.00316 µM) 65.5% | viability, T/C (second compound 0.01 µM, first compound 0.01 µM) 45.9% | viability, T/C (second compound 0.01 µM, first compound 0.0316 µM) 34.6% | viability, T/C (second compound 0.01 µM, first compound 0.1 µM) 32.3% | viability, T/C (second compound 0.0316 µM, first compound 0.000316 µM) 73.7% | viability, T/C (second compound 0.0316 µM, first compound 0.001 µM) 64.5% | viability, T/C (second compound 0.0316 µM, first compound 0.00316 µM) 48.2% | viability, T/C (second compound 0.0316 µM, first compound 0.01 µM) 33.1% | viability, T/C (second compound 0.0316 µM, first compound 0.0316 µM) 28.8% | viability, T/C (second compound 0.0316 µM, first compound 0.1 µM) 26.8% | viability, T/C (second compound 0.1 µM, first compound 0.000316 µM) 55.1% | viability, T/C (second compound 0.1 µM, first compound 0.001 µM) 47% | viability, T/C (second compound 0.1 µM, first compound 0.00316 µM) 37.4% | viability, T/C (second compound 0.1 µM, first compound 0.01 µM) 30.2% | viability, T/C [26] 27.6% | viability, T/C [27] 27.6% | viability, T/C (second compound 0.316 µM, first compound 0.000316 µM) 41.7% | viability, T/C (second compound 0.316 µM, first compound 0.001 µM) 38% | viability, T/C (second compound 0.316 µM, first compound 0.00316 µM) 31.4% | viability, T/C (second compound 0.316 µM, first compound 0.01 µM) 30.1% | viability, T/C [28] 29.6% | viability, T/C [29] 29.3% | viability, T/C (second compound 1 µM, first compound 0.000316 µM) 47.1% | viability, T/C (second compound 1 µM, first compound 0.001 µM) 45% | viability, T/C (second compound 1 µM, first compound 0.00316 µM) 39.8% | viability, T/C (second compound 1 µM, first compound 0.01 µM) 45.4% | viability, T/C [30] 47.4% | viability, T/C [31] 49.8%
< 0.316 nM: IC50 [4] | IC50 [5]
0.66 nM: IC50 [3]
2.71 nM: IC50 [2]
